{
  "source": "patent US11547957B2",
  "about": "“Method of maintaining narrow residence time distributions in continuous flow systems” (EMD Millipore Corporation, priority 2017, dated 2023)",
  "tested_on": "Phi6 bacteriophage virus",
  "assay": "Static detergent-based virus inactivation, infectivity by plaque assay",
  "type": "cell-based",
  "settings": "mAb 15 mg/mL, 22-25° C.; for Time to Complete Inactivation: Phi6",
  "method": "The purpose of this study was to examine detergent-based virus inactivation kinetics. In this representative experiment, two different concentrations (0.1% and 1.0% v/v) of a detergent, Triton X-100 were used to inactivate a bacteriophage virus, Phi6. The objective was to determine the exposure time required for complete inactivation.\nA monoclonal antibody was purified by standard Protein A chromatography and prepared at a concentration of 15 mg/mL. The virus spike was added and vortexed to ensure a well-mixed system. The Phi6 target spike level was 1×10^8 pfu/mL. Detergent was added to reach the desired concentrations of 0.1% and 1.0% v/v. At various time points, a sample was removed and quenched by adding it to buffer at a 1:1000 dilution ratio. The tubes were vortexed after the detergent addition. These experiments were carried out at room temperature, 22-25° C. Control samples at the initial and final time points were also analyzed. The control samples were diluted similarly to the actual samples using the background buffer.",
  "data": [
    {"substance": "Triton X-100", "values": [
      {"measurement": "Time to Complete Inactivation", "setting": "0.1% v/v Triton X-100", "value": "≤1", "unit": "min"},
      {"measurement": "Time to Complete Inactivation", "setting": "0.1% v/v Triton X-100, listed as Triton X100", "value": "≤ 1", "unit": "min"},
      {"measurement": "Phi6 LRV", "setting": "0.1% v/v Triton X-100, inactivation time 1 min", "value": "≥5.2"},
      {"measurement": "Phi6 LRV", "setting": "0.1% v/v Triton X-100, inactivation time 2 min", "value": "≥5.2"},
      {"measurement": "Phi6 LRV", "setting": "0.1% v/v Triton X-100, inactivation time 3 min", "value": "≥5.2"},
      {"measurement": "Phi6 LRV", "setting": "0.1% v/v Triton X-100, inactivation time 4 min", "value": "≥5.2"},
      {"measurement": "Phi6 LRV", "setting": "0.1% v/v Triton X-100, inactivation time 5 min", "value": "≥5.2"},
      {"measurement": "Phi6 LRV", "setting": "0.1% v/v Triton X-100, inactivation time 15 min", "value": "≥5.2"},
      {"measurement": "Phi6 LRV", "setting": "0.1% v/v Triton X-100, inactivation time 30 min", "value": "≥5.2"},
      {"measurement": "Time to Complete Inactivation", "setting": "1.0% v/v Triton X-100", "value": "≤1", "unit": "min"},
      {"measurement": "Time to Complete Inactivation", "setting": "1.0% v/v Triton X-100, listed as Triton X100", "value": "≤ 1", "unit": "min"},
      {"measurement": "Phi6 LRV", "setting": "1.0% v/v Triton X-100, inactivation time 1 min", "value": "≥6.2"},
      {"measurement": "Phi6 LRV", "setting": "1.0% v/v Triton X-100, inactivation time 2 min", "value": "≥6.2"},
      {"measurement": "Phi6 LRV", "setting": "1.0% v/v Triton X-100, inactivation time 3 min", "value": "≥6.2"},
      {"measurement": "Phi6 LRV", "setting": "1.0% v/v Triton X-100, inactivation time 4 min", "value": "≥6.2"},
      {"measurement": "Phi6 LRV", "setting": "1.0% v/v Triton X-100, inactivation time 5 min", "value": "≥6.2"},
      {"measurement": "Phi6 LRV", "setting": "1.0% v/v Triton X-100, inactivation time 15 min", "value": "≥6.2"},
      {"measurement": "Phi6 LRV", "setting": "1.0% v/v Triton X-100, inactivation time 30 min", "value": "≥6.2"}
    ]}
  ]
}
